The values that follow come from patent publication US20060135568A1, “Methods of treating microbial infections in humans and animals” (priority 2002, published 2006).

In brackets after ≈: the same amount, converted by molar mass. Entries after “also recorded” stand apart in the source; their conditions may differ. Read-outs that look alike come from different tables or passages of the source.

For data set [1], the system named is ATP level in BCG cultures. In kind it is cell-based, M. bovis BCG. The following applies: for ATP[M] levels, single time-point and time-course experiments: all time-points tested.
The subject of the next data set is M. tuberculosis H37Rv. The experiment in a line: BACTEC radiometric growth procedure, activity in the presence of ethanol. It is filed as cell-based, Mycobacterium tuberculosis (H37Rv). The conditions noted are these: for potentiation of growth inhibition by ethanol: 0.05% ethanol, M. tuberculosis; for MIC: Mycobacterium tuberculosis, H37RV, M. tuberculosis H37Rv, BACTEC.

For data set [2], the system named is mycolic acid synthesis in BCG. It is filed as cell-based, M. bovis BCG. The conditions noted are these: BCG early log phase, 100 μg/ml, 10 minutes post exposure.
For data set [3], the system named is b-subunit and hsp homologs. The experiment in a line: 2-dimensional protein profiles of OSA-treated M. smegmatis. It is filed as cell-based. As to the method: Protein assays: mycobacteria and cultures. Either DMSO (diluent), OSA. (6.25 and 100 μg/ml), cerulenin (24 μg/ml) or isoniazid (1.0 μg/ml) were added to 20 ml control and treated cultures, respectively. Following additional incubation for 24 hours under the same conditions, 2 ml aliquots of cells were harvested by centrifugation (13,000× g for 30 seconds), the supernatant removed, and the process repeated once using 1×PBS. The cellular contents of each tube were divided into 2 to 3 Eppendorfs (roughly 3 to 5 OD units per tube), and 250 μl of a lysis solution containing 3M urea (Sigma), 0.5% Triton X-100 (Sigma), […] dithiothreitol (DTT) (Gibco BRL, Life Technologies, Gaithersburg, Md.) and […] Pharmalyte (Pharmacia Biotech, Piscataway, N.J.) was added. Subsequently, phenylmethylsulfonyl fluoride (PMSF) (Sigma) (100 μg/ml) and leupeptin (2 μg/ml) (Sigma) were also added. Mixtures containing cells and lysis solution were beadbeaten at maximum speed for 60 seconds in a Biospec Mini-8 beadbeater using 200-300 μm glass beads (Sigma). This process was repeated twice per sample with 30-second intervals on ice between agitations. […] Protein concentration was determined using a standardized colorimetric assay (Coomassie Plus, Pierce, Rockford, Ill.) and BSA standards (Pierce) in a Shimadzu UC-1201 spectrophotometer. Quantitated samples were aliquoted and frozen at −70° C. […]

The test system of data set [4] is atpF (Rv1306) and hsp (Rv0251c). It is filed as cell-based, M. bovis BCG. The conditions noted are these: BCG treated overnight.
For another data set, the system named is BCG. In words: MIC in BCG. In kind it is cell-based, M. bovis BCG. The conditions noted are these: Mycobacterium tuberculosis variant bovis BCG.
The subject of data set [5] is mycolic acid synthesis in BCG. The following applies: previously reported; cited from earlier work.
Another data set relates to M. smegmatis. The conditions noted are these: concentrations up to 100 μg/ml; previously reported; cited from earlier work.
The conditions of data set [6]: cited from earlier work.
The mark [7] stands for this setting: 5 minutes post-exposure, 16× MIC or stated inhibitor concentration.

Regarding `[H]/N=C(/N)N[C@H]1[C@H](O)[C@@H](O)[C@H](O[C@@H]2O[C@@H](C)[C@](O)(C=O)[C@H]2O[C@@H]2O[C@@H](CO)[C@H](O)[C@@H](O)[C@@H]2NC)[C@@H](N/C(N)=N\[H])[C@@H]1O` [STR, streptomycin], the “effect on ATP level versus untreated BCG” value in data set [1] (setting [7]) is “no appreciable difference”. The “potentiation of growth inhibition by ethanol” value with M. tuberculosis H37Rv is given as “No potentiation”.

Turning to `C/C=C/C/C=C/CCC(=O)[C@H]1O[C@H]1C(N)=O` [cerulenin], the “effect on ATP level versus untreated BCG” value in [1] (setting [7]) is “No appreciable decrease”.

Take `NNC(=O)c1ccncc1` [INH, isoniazid]: in data set [1] (setting [7]), the “effect on ATP level versus untreated BCG” value is recorded as “no appreciable difference”.

As for `O=C(CC(=O)C(F)(F)F)c1cccs1` [TTFA, thenoyltrifluoroaceton], the “effect on ATP level versus untreated BCG” value in data set [1] (setting [7]) is recorded as “only a moderate decrease”. Further, the “decrease in total mycolic acid levels compared to untreated controls” value (shortened to “decrease in total mycolic acid levels”) in data set [2] amounted to 46%.

On to `C=C(C)[C@H]1Cc2c(ccc3c2O[C@@H]2COc4cc(OC)c(OC)cc4[C@@H]2C3=O)O1` [rotenone], for which, in data set [1], the “effect on ATP level versus untreated BCG” value is “No appreciable decrease”.

As usually defined, the MIC is the least concentration at which growth counts as inhibited. For the molecule `CCCCCCCCS(=O)(=O)CC(N)=O` [OSA, n-octanesulfonylacetamide], in [3], the “overexpression of hsp and b-subunit homologs” value is reported as “no proteins consistent with these molecular weights or pI's were overexpressed; also recorded: neither protein was overexpressed”. Besides, the “level of hsp expression by RT-PCR” value in [4] is “marked increase”. In addition, the “effect on ATP level versus untreated BCG” value in [1] (setting [7]) is “significantly decreased”. For the same molecule, the “reduction in ATP[M] versus untreated controls” value was 85% in data set [1] (BCG, 100 μg/ml, 24 hours) and 54% in [1] (BCG, 100 μg/ml, three hours). Moreover, the “decrease in ATP[M] level versus untreated controls” value in [1] (BCG, 100 μg/ml, one hour post exposure) was found to be 46%. The “ATP[M] levels, single time-point and time-course experiments” value in data set [1] (BCG) is given as “decreased significantly”. In addition, the “potentiation of growth inhibition by ethanol” value in the data set on M. tuberculosis H37Rv is on record as “potentiated”. The MIC in the data set on M. tuberculosis H37Rv (with 0.05% ethanol) is less than 1.5 µg/mL; with M. tuberculosis H37Rv (without ethanol, read-out: MIC), 6.25 µg/mL; against BCG it was 6.25 µg/mL (≈ 26.6 µM). Moreover, the “decrease in total mycolic acid levels” value in [2] turned out to be 43%. Also, the “mycolic acid levels in BCG” value in data set [5] is on record as “decreased”. Moreover, the “susceptibility of M. smegmatis” value with M. smegmatis is listed as “intrinsically resistant”. Moreover, the limit of solubility in data set [6] was 100 µg/mL.

As for `CO[C@H]1/C=C/O[C@@]2(C)Oc3c(C)c(O)c4c(O)c(c(/C=N/N5CCN(C)CC5)c(O)c4c3C2=O)NC(=O)/C(C)=C\C=C\[C@H](C)[C@H](O)[C@@H](C)[C@@H](O)[C@@H](C)[C@H](OC(C)=O)[C@@H]1C` [RIF, rifampin], the “effect on ATP level versus untreated BCG” value in data set [1] (setting [7]) is “no appreciable difference”.

Consider `CC[C@@H](CO)NCCN[C@@H](CC)CO` [EMB, ethambutol], for which, in [1] (setting [7]), the “effect on ATP level versus untreated BCG” value was “no appreciable difference”.

For `O=c1oc2ccccc2c(O)c1Cc1c(O)c2ccccc2oc1=O` [dicumarol], the “effect on ATP level versus untreated BCG” value in data set [1] (setting [7]) was “No appreciable decrease”.

As for `C(=NC1CCCCC1)=NC1CCCCC1` [DCCD, dicyclohexylcarbodiimide], the “effect on ATP level versus untreated BCG” value in [1] (setting [7]) is recorded as “statistically significant decrease”. The “decrease in ATP[M] level” value in data set [1] (BCG, 100 μg/ml, all timepoints (1, 3, 24 hours)) turned out to be 95%. In [1] (BCG), the “ATP[M] levels, single time-point and time-course experiments” value is “decreased significantly”. In addition, the “decrease in total mycolic acid levels” value in [2] was found to be 79%.
